{
  "source": "patent US11975000B1",
  "about": "“Tadalafil oral transmucosal film” (Xiamen LP Pharmaceutical Co., Ltd., priority 2023, dated 2024)",
  "origin": "cited, not measured here",
  "key": {"[1]": {"settings": "in vivo"}},
  "data": [
    {"molecule": "CN1CC(=O)N2[C@H](c3ccc4c(c3)OCO4)c3[nH]c4ccccc4c3C[C@@H]2C1=O", "note": "[Tadalafil, (6R-trans)-6-(1,3-benzodioxol-5-yl) 2,3,6,7,12,12a-hexahydro-2-methyl-pyrazino[1′,2′:1,6]pyrido[3,4-b]indole-1,4-dione]", "values": [
      {"measurement": "Duration of action", "setting": "[1]", "value": "24 to 36", "unit": "h"},
      {"measurement": "Reported maximum duration", "setting": "[1]", "value": 72, "unit": "h"},
      {"measurement": "Solubility (in words)", "value": "practically insoluble in water"},
      {"measurement": "Water solubility", "setting": "in water at 25° C., U.S. Pat. No. 6,841,167", "value": "about 2 μg/mL"}
    ]}
  ]
}
